From patent US8563516B2, “Foxp3 peptide vaccine” (OncoTherapy Science, Inc., priority 2007, dated 2013)

Tests used:
[1] = test system: peptide-pulsed T2 cells; assay: IFN-gamma ELISPOT on CTLs induced with HLA-A0201 restricted Foxp3 peptides; assay type: cell-based, human; conditions: FIG. 2A/2B/2C
Source text: (§1) Monocyte-derived dendritic cells (DCs) were used as antigen-presenting cells (APCs) to induce CTL responses against peptides presented on HLA. DCs were generated in vitro as described elsewhere (Horiguchi S. et al. Cancer Res. 59:2950-6). Specifically, peripheral blood mononuclear cells (PBMCs) isolated from normal volunteer (HLA-A*2402 and/or HLA-A*0201) with Ficoll-Plaque (Pharmacia) solution were separated by adherence to plastic tissue culture dish (Becton Dickinson) so as to enrich them for the monocyte fraction. The monocyte-enriched population was cultured in the presence of 1000 U/ml of GM-CSF (R&D System) and 1000 U/ml of IL-4 (R&D System) in AIM-V medium (Invitrogen) containing 2% heat-inactivated autologous serum (AS). After 7 days in the culture, the cytokine-generated DCs were pulsed with 20 mcg/ml of the synthesized peptides in the presence of 3 mcg/ml of beta2-microglobulin for 4 hrs at 20 degrees C. in AIM-V medium. These peptide-pulsed DCs were then inactivated with mitomycin C (MMC) (30 mcg/ml for 30 mins) and mixed at a 1:20 ratio with autologous CD8+ T cells, obtained by positive selection with CD8 Positive Isolation Kit (Dynal). These cultures were set up in 48-well plates (Corning); each well contained 1.5×10^4 peptide-pulsed DCs, 3×10^5 CD8+ T cells and 10 ng/ml of IL-7 (R&D System) in 0.5 ml of AIM-V/2% AS. Three days later, these cultures were supplemented with IL-2 (CHIRON) to a final concentration of 20 IU/ml. On day 7 and 14, the T cells were further restimulated with the peptide-pulsed autologous DCs. The DCs were prepared each time through the same procedure described above. CTL activity was tested against peptide-pulsed A24LCL cells or T2 cells after the 3rd round of peptide stimulation on day 21.
(§2) To examine the specific CTL activity, IFN-gamma ELISPOT assay and IFN-gamma ELISA were performed. Briefly, peptide-pulsed A24-LCL, T2 cell (1×10^4/well) or the cells endogenously expressing Foxp3 and HLA molecule was prepared as a stimulator cells. Cultured CTL lines in 48 wells were used as a responder cells. IFN-gamma ELISPOT assay and IFN-gamma ELISA were performed under manufacture procedure.
Resulting CTLs showing detectable specific CTL activity were shown in FIG. 2A, FIG. 2B and FIG. 2C when performed by IFN-gamma ELISPOT assay.

[2] = test system: peptide-pulsed A24LCL cells or T2 cells; assay: In vitro CTL induction by peptide-loaded dendritic cells (summary statements); assay type: cell-based, human; conditions: for specific CTL activity: against peptide pulsed target cells; for establishment of CTLs: in vitro stimulation of T-cells by DCs loaded with peptide
Source text: Confirmation of CTL inducibility can be accomplished by inducing antigen-presenting cells carrying human MHC antigens (for example, B-lymphocytes, macrophages, and dendritic cells), or more specifically dendritic cells derived from human peripheral blood mononuclear leukocytes, and after stimulation with the peptides, mixing with CD8-positive cells, and then measuring the IFN-gamma produced and released by CTL against the target cells. As the reaction system, transgenic animals that have been produced to express a human HLA antigen (for example, those described in BenMohamed L, Krishnan R, Longmate J, Auge C, Low L, Primus J, Diamond D J, Hum Immunol 61(8): 764-79, 2000 August, Related Articles, Books, Linkout Induction of CTL response by a minimal epitope vaccine in HLA A*0201/DR1 transgenic mice: dependence on HLA class II restricted T(H) response) can be used. For example, the target cells can be radiolabeled with ^51Cr and such, and cytotoxic activity can be calculated from radioactivity released from the target cells. Alternatively, it can be examined by measuring IFN-gamma produced and released by CTL in the presence of antigen-presenting cells that carry immobilized peptides, and visualizing the inhibition zone on the media using anti-IFN-gamma monoclonal antibodies.
as §1, §2

[3] = test system: peptide-pulsed A24LCL cells; assay: IFN-gamma ELISPOT on CTLs induced with HLA-A2402 restricted Foxp3 peptides; assay type: cell-based, human; conditions: FIG. 1A/1B
Source text: as §1, §2
CTLs for the peptides derived from Foxp3 protein were generated according to the method described in the “Materials and Methods”, supra.

[4] = molecular target: T1, HLA-A2 molecule (Homo sapiens, UniProt P04439, D140Y/D185E/D98H/E176V/E277Q/G131W/G231S/I119V/I121R/I166T/I218V/L300P/L318F/N151K/N90K/P208A/P217A/Q86G/Q94H/R138H/R169H/T345S); assay: CTL induction with Foxp3-9-252 substitutions restricted HLA-A*0201; assay type: cell-based; conditions: FIG. 7C; for IFN-gamma production compared with the control: positive wells
T1 construct: peripheral blood mononuclear cells (PBMCs) isolated from normal volunteer (HLA-A*2402 and/or HLA-A*0201); endogenous in cells; host or cells: monocyte-derived dendritic cells of HLA-A*0201 volunteers; T2 cells as stimulators in the read-out
Method: In FIG. 7C CTLs could be induced by stimulation with Foxp3-9-252 substitutions targeted HLA-A2 molecule. CTLs for all substituted peptides targeted HLA-A2 molecule were generated in the way as described in “Materials and Methods”. […] CTL line induced with Foxp3-9-252-9V peptide was used as responder cells. T2 cells incubated with Foxp3-9-252-9V (-solid circle-) or Foxp3-9-252-WT (-open circle-) peptide and without any peptide (-open square-) were used as stimulator cells in this assay (1×10^4 cells/well).
as §1, §2
On the other hand, the present inventers attempted the induction of CTLs using all substitutions restricted HLA-A*0201 including Foxp3-9-252-9V peptide. […] After CTL line induced by stimulation with Foxp3-9-252-9V was established by in vitro expansion, the CTL activity was determined by using stimulator cells pulsed with Foxp3-9-252-WT or Foxp3-9-252-9V peptide.

Sequence | IFN-gamma production of CTLs stimulated with peptide, compared with the control [1] | specific CTL activity [2] | establishment of CTLs [2] | IFN-gamma production of CTLs stimulated with peptide, compared with the control [3] | also measured
GINVASLEWV (peptide vaccine) [SEQ ID NO 29] | potent IFN-gamma production | significant and specific CTL activity | CTLs were successfully established | – | –
IYHWFTRMF (peptide vaccine) [SEQ ID NO 3] | – | significant and specific CTL activity | CTLs were successfully established | potent IFN-gamma production | –
KFHNMRPPF (peptide vaccine) [SEQ ID NO 5] | – | significant and specific CTL activity | CTLs were successfully established | potent IFN-gamma production | –
KLLAMQAHL (peptide vaccine) [SEQ ID NO 98] | – | – | – | – | CTL induction by stimulation with substituted peptide [4]: CTLs were induced; IFN-gamma production compared with the control ([4]; listed as Foxp3-9-252-3L): showed IFN-gamma production; IFN-gamma production compared with the control ([4]; listed as Foxp3-A02-9-252-3L): peptide-dependent IFN-gamma production
KLMAMQAHL (peptide vaccine) [SEQ ID NO 97] | – | – | – | – | CTL induction by stimulation with substituted peptide [4]: CTLs were induced; IFN-gamma production compared with the control ([4]; listed as Foxp3-9-252-3M): showed IFN-gamma production; IFN-gamma production compared with the control ([4]; listed as Foxp3-A02-9-252-3M): peptide-dependent IFN-gamma production
KMALTKASSV (peptide vaccine) [SEQ ID NO 24] | potent IFN-gamma production | significant and specific CTL activity | CTLs were successfully established | – | –
LLQREMVQSL (peptide vaccine) [SEQ ID NO 28] | potent IFN-gamma production | significant and specific CTL activity | CTLs were successfully established | – | –
LQLPTLPLV (peptide vaccine) [SEQ ID NO 16] | potent IFN-gamma production | significant and specific CTL activity | CTLs were successfully established | – | –
LVLEKEKLSA (peptide vaccine) [SEQ ID NO 37] | potent IFN-gamma production | significant and specific CTL activity | CTLs were successfully established | – | –
QLQLPTLPL (peptide vaccine) [SEQ ID NO 18] | potent IFN-gamma production | significant and specific CTL activity | CTLs were successfully established | – | –
RPPFTYATL (peptide vaccine) [SEQ ID NO 8] | – | significant and specific CTL activity | CTLs were successfully established | potent IFN-gamma production | –
RTPVLQVHPL (peptide vaccine) [SEQ ID NO 12] | – | significant and specific CTL activity | CTLs were successfully established | potent IFN-gamma production | –
SLFAVRRHL (peptide vaccine) [SEQ ID NO 19] | potent IFN-gamma production | significant and specific CTL activity | CTLs were successfully established | – | –
SYPLLANGV (peptide vaccine) [SEQ ID NO 9] | – | significant and specific CTL activity | CTLs were successfully established | potent IFN-gamma production | –
TLNEIYHWFT (peptide vaccine) [SEQ ID NO 22] | potent IFN-gamma production | significant and specific CTL activity | CTLs were successfully established | – | –
VFEEPEDFL (peptide vaccine) [SEQ ID NO 4] | – | significant and specific CTL activity | CTLs were successfully established | potent IFN-gamma production | –
VMVAPSGARL (peptide vaccine) [SEQ ID NO 30] | potent IFN-gamma production | significant and specific CTL activity | CTLs were successfully established | – | –
WFTRMFAFF (peptide vaccine) [SEQ ID NO 7] | – | significant and specific CTL activity | CTLs were successfully established | potent IFN-gamma production | –
